# Reference: patent publication US20050059694A1, “New use of 11.28-dioxa-4-azatricyclo [22.3.1.04,9] octacos-18-ene derivatives and pharmaceutical compositions containing them” (Fujisawa Pharmaceutical Co., Ltd., priority 1987, published 2005)
# Tests used:
# [1] = test system: human polymorphonuclear neutrophil leukocytes; assay: Inhibition of A 23187-stimulated oxidative burst (chemiluminescence) in PMNL; type: cell-based; settings: minimal inhibiting concentration with significant inhibition of all 3 chemiluminescence parameters; calcium ionophor A 23187 stimulus
# Description: (§1) 3. Inhibition of the Oxidative Burst in Human Polymorphonuclear neutrophil leukocytes (inhibition of FMLP—or, respectively, A 23187-stimulated chemiluminescence):
# (§2) Polymorphonuclear leukocytes (PMNL) are prepared from human peripheral blood (M. Schaude et al., Mycoses 31 (5) [1988]259-267). Stock solutions of the test substances (500 mg/l) are freshly prepared on the day of experiment in 5% DMSO/RPMI 1640. For the determination of the chemiluminescence (CL) with Biolumat LB 9505 the luminescence indicator DMNH is used. […] The CL-reaction is started by addition of either 100 μl of the peptide FMLP (4×10^−6 M) or of the calcium ionophor A 23187 (4×10^−6 M). […] 3 parameters are used for evaluation of the results: peak intensity of the radiated light, time span up to the peak and surface area under the reaction curve. As minimal inhibiting concentration the concentration of test substance is chosen where a significant inhibition of all 3 parameters can be observed (Table 4).
# [2] = test system: TPA-induced PGE2 release from macrophages; assay: Inhibition of macrophage activation (TPA-induced PGE2 release); type: cell-based, NMRI mice; settings: PGE2 release from TPA-stimulated mouse peritoneal macrophages
# Description: 4. Inhibition of Macrophage Activation (Inhibition of TPA-induced PGE2 release)
# Peritoneal exudate cells of NMRI mice pretreated 3 days earlier with 1.5 ml thioglycolate i.p. are harvested by peritoneal lavage, washed with deficient PBS and resuspended in DMEM medium supplemented with 10% FCS. 1×10^6 cells are transferred to each well of a 24-wells plate, and the cells are left to adhere 4 hours at 37° and 5% CO2. The cells are then washed twice with deficient PBS. The resultant, more than 95% pure macrophage population is stimulated with TPA ([…]) in DMEM-medium devoid of FCS. The conditioned media are centrifuged and the PGE2-contents determined using a ^125I-radioimmunotest. PGE2-release inhibition with the test substances is measured as percentage inhibition compared to the controls.
# [3] = test system: oxazolone allergy (allergic contact dermatitis, DTH-reaction); assay: Oxazolone allergy (mouse), topical administration; type: in vivo; settings: ethanol as solvent, pinna weight difference 24 hours after second exposure
# Description: 1. Determination of the activity after topical administration in models of allergic or allergen-induced contact dermatitis (DTH-reaction) 1.1. Oxazolone Allergy (Mouse): 10 μl of a 2% oxazolone solution are applied onto the abdominal skin of mice for sensitization, 8 days later a second exposure with 10 μl of a 2% oxazolone solution is performed by application on the peripheral internal surface of the pinna. 20 minutes and 2 hours after the second exposure has released the challenge reaction, the test solution is applied at the site of the second exposure. Evaluation of the inhibition of inflammation with the test substance is effected by reference to an untreated group treated with the solvent used for dissolving the test substance, alone. 24 hours after the second exposure the animals are killed and the separated pinnae are weighted. The difference in weight between the two pinnae is used for evaluation; the individual differences in the test group and in the solvent control group are statistically compared (by simple variance analysis with subsequent Dunnet test by normal distribution test if normally distributed, otherwise by […] and Wilcoxon-Mann-Whitney's U-test). The activity of the test substance is indicated in %, based on mean values. […] Ethanol is used as solvent.
# [4] = test system: dermatitis induced by croton oil; assay: Dermatitis induced by croton oil (mouse), topical administration; type: in vivo, NMRI mice; settings: dissolved in irritant solution, pinna weight difference 6 hours after irritant
# Description: 2. Determination of the Activity after Topical Administration In the Irritant-Induced Dermatitis Model (Mouse) 2.2. Dermatitis Induced by Croton Oil Croton oil is often used, as TPA, in order to induce an irritant-induced dermatitis on which substances can be tested for their anti-inflammatory activity (Maibach, Love, Ed., Models in Dermatology, Vol. 3[1987]p. 86-92, Karger-Basel). NMRI-mice are given 15 μl of 0.23% croton oil (in a mixture of dimethylacetamide, acetone and ethanol 2/4/4) on the inner side of the right pinna. Treatment is effected simultaneously with the irritation, the test substance being dissolved in the solution of irritant applied at the auricular test site. Evaluation of the test group is performed by comparison of the inflammation with a group receiving only the irritant solution on the pinna. The animals are killed 6 hours after application of the irritant, the pinnae separated and weighted. The difference between the weights of the two individual pinnae is used for evaluation, by statistical comparison of the single differences in the test group with the single differences in the control group (as under 1.1.). The activity of the test substances is indicated in % based on average values.
# [5] = test system: human polymorphonuclear neutrophil leukocytes; assay: Inhibition of FMLP-stimulated oxidative burst (chemiluminescence) in PMNL; type: cell-based; settings: minimal inhibiting concentration with significant inhibition of all 3 chemiluminescence parameters; FMLP stimulus
# Description: as §1, §2
# DNFB contact allergy = assay: DNFB allergy (swine), topical administration; type: in vivo; settings: 5% preparation (solution in 15% dimethylformamide, 42.5% ethanol, 42.5% propylenglycol), applied topically 4 times
# Description: On the 1st and 3rd day 100 μl each of a 10% DNFB preparation is applied onto the inner surface of the right and, respectively, left thigh. On the 14th day each swine is marked on the right and the left side of the back with circular markings of 5 cm in diameter (8 markings per animal) and 150 μl each of a 0.5% DNFB preparation is applied thereon. The substances are tested either in the form of galenical compositions or of a solution. The carriers are used in each case as placebo controls.
# The test products are carefully applied 4 times (first 30 minutes, then 6, 24 and 32 hours after release of the challenge reaction). Prior to each application the test areas are evaluated with respect to reddenning, swelling and consistance. The coloration of the test areas is then determined quantitatively with a reflectometer, repeatedly. From the data on brightness (L*) and saturation (C*) the erythema index is computed according to the following formula: 100−L*×C*. The mean erythema index is a reflection of the activity according to the following formula: [formula]
# TPA-induced dermatitis = TPA-induced dermatitis (mouse), topical administration; type: in vivo, NMRI mice; settings: dimethylacetamide/acetone/ethanol (2/4/4), pinna weight difference 6 hours after irritant
# Description: 2. Determination of the Activity after Topical Administration In the Irritant-Induced Dermatitis Model (Mouse) 2.1 TPA-induced Dermatitis: Skin irritation with TPA in test animals is a method for testing substances as to their antiinflammatory activity after local application (Maibach, Lowe, Ed. Models in Dermatology, Vol. 3 [1987] p. 86-92, Karger-Basel). NMRI mice are given 10 μl of a TPA solution on the inner and outer side of the right pinna (2×10 μl/mouse=2×0.5 μg TPA/mouse). The left pinnae remain untreated. Treatment is effected 30 min. after irritation, by application of 2×10 μl of test solution onto the irritated ear surfaces, as described above. The evaluation of the test group is performed by comparison with a group where the right pinna has been treated with only the irritating solution and with the solvent used for the test substance. 6 hours after application of the irritant the animals are killed, the pinnae separated and weighted. The difference in weight of the two pinnae is used for the evaluation, whereby the individual differences of the test groups are statistically compared with the individual differences of the control groups (as under 1.1.). The activity of the test substances is indicated in % on the basis of the average values. The solvent used is a mixture of dimethylacetamide, acetone and ethanol (2/4/4): […]
# human keratinocytes = assay: Inhibition of proliferation of human keratinocytes; type: cell-based
# Description: 5. Inhibition of proliferation of human keratinocytes
# Cultures of human keratinocytes are obtained by trypsination of human foreskin from newborns or obtained as to EpiPack from Clonetics Corp. (San Diego). The keratinocyte cultures are grown in culture flasks in a supplemented keratinocyte medium (KGM). The passages 3 to 5 of 80-90% confluent keratinocytes are resuspended in KGM at a concentration of 1×10^5 cells/ml, and either 0.1 ml each of this cell suspension is added into a 96-vells microtiter plate or 1 ml each of this cell suspension are added into a 24-wells plate in the presence of test substance. The cells are grown for 48 hours at 37° and 5% CO2. ^3H-thymidine is incorporated during the last 16 hours (microtiter plate, 1 μCi/well), the cells are checked for their morphology, washed thrice with ice-cold, deficient PBS and twice with trichloroacetic acid, solubilized in 100 μl 0.1 N NaOH containing 1% SDS, and the radioactivity is measured. Alternatively, cells from the 24-well plate are trypsinized (trypsin/EDTA), checked for viability by trypan blue exclusion, and triple aliquots are counted in a cell counter.
SMILES,MIC (μM) (A 23187) [1] [µM],inhibition at 1 µM [2] [%],% inhibition ([3]; 0.005 % concentration) [%],% inhibition ([4]; 0.4 % concentration) [%],% inhibition ([4]; 1.2 % concentration) [%],% inhibition ([4]; 3.6 % concentration) [%],MIC (μM) (FMLP) [5] [µM],% inhibition (TPA-induced dermatitis; 1.2 % concentration) [%],% inhibition (TPA-induced dermatitis; 3.6 % concentration) [%],other results
"C=CC[C@@H]1/C=C(\C)C[C@H](C)C[C@H](OC)[C@H]2O[C@@](O)(C(=O)C(=O)N3CCCC[C@H]3C(=O)O[C@H](/C(C)=C/[C@@H]3CC[C@@H](O)[C@H](OC)C3)[C@H](C)[C@@H](O)CC1=O)[C@H](C)C[C@@H]2OC [Compound A, 17-Allyl-1,14-dihydroxy-12-[2-(4-hydroxy-3-methoxycyclo-hexyl)-1-methylvinyl]-23,25-dimethoxy-13,19,21,27-tetramethyl-11,28-dioxa-4-azatricyclo[22.3.1.0^4,9]octacos-18-ene-2,3,10,16-tetraone]",0.05,30,52,52,64,85,0.005,52,56,"% inhibition ([3]; 0.0005 % concentration): 35%; % inhibition ([3]; 0.002 % concentration): 38%; % inhibition ([3]; 0.01 % concentration): 65%; % inhibition ([3]; 0.13 % concentration): 65%; clinical evaluation of the test sites / activity (DNFB contact allergy): the treated areas can hardly be distinguished from the adjacent normal skin; inhibition at 0.5 µM (human keratinocytes; Homo sapiens, Keratinocyte, 0.5 μM, 48 hours, read-out: % inhibition compared to control): 57%; inhibition at 1 µM (human keratinocytes; Homo sapiens, Keratinocyte, 1 μM, 48 hours, read-out: % inhibition compared to control): 74%; inhibition at 5 µM (human keratinocytes; Homo sapiens, Keratinocyte, 5 μM, 48 hours, read-out: % inhibition compared to control): 94%; reduction in proliferation (human keratinocytes; concentration range from 0.5 to 5 μM): dose-dependent reduction in proliferation"
"CCCC1C=C(C)CC(C)CC(OC)C2OC(O)(C(=O)C(=O)N3CCCCC3C(=O)OC(C(C)=CC3CCC(O)C(OC)C3)C(C)C(O)CC1=O)C(C)CC2OC (stereo not shown) [Compound B, 1,14-dihydroxy-12-[2-(4-hydroxy-3-methoxycyclohexyl)-1-methylvinyl]-23,25-dimethoxy-13,19,21,27-tetramethyl-17-propyl-11,28-dioxa-4-azatricyclo[22.3.1.0^4,9]octacos-18-ene-2,3,10,16-tetraone]",0.01,60,60,–,–,–,0.01,–,–,–
"C=CCC1C=C(C)CC(C)CC(OC)C2OC(O)(C(=O)C(=O)N3CCCCC3C(=O)OC(C(C)=CC3CCC(O)C(OC)C3)C(C)C=CC1=O)C(C)CC2OC (stereo not shown) [Compound C, 17-allyl-1-hydroxy-12-[2-(4-hydroxy-3-methoxycyclohexyl)-1-methylvinyl]-23,25-dimethoxy-13,19,21,27-tetramethyl-11,28-dioxa-4-azatricyclo[22.3.1.0^4,9]octacosa-14,18-diene-2,3,10,16-tetraone]",5,60,–,–,–,–,0.5,–,–,–
"C=CCC1C=C(C)CC(C)CC(OC)C2OC(O)(C(=O)C(=O)N3CCCCC3C(=O)OC(C(C)=CC3CCC(OC(C)=O)C(OC)C3)C(C)C(OC(C)=O)CC1=O)C(C)CC2OC (stereo not shown) [Compound D, 14-acetoxy-12-[2-(4-acetoxy-3-methoxycyclohexyl)-1-methylvinyl]-17-allyl-1-hydroxy-23,25-dimethoxy-13,19,21,27-tetramethyl-11,28-dioxa-4-azatricyclo[22.3.1.0^4,9]octacos-18-ene-2,3,10,16-tetraone]",0.5,–,–,–,–,–,<0.5,–,–,–
"C=CCC1C=C(C)CC(C)CC(OC)C2OC(O)(C(=O)C(=O)N3CCCCC3C(=O)OC(C(C)=CC3CCC(OC(C)=O)C(OC)C3)C(C)C(O)CC1=O)C(C)CC2OC (stereo not shown) [Compound E, 12-[2-(4-acetoxy-3-methoxycyclohexyl)-1-methylvinyl]-17-allyl-1,14-dihydroxy-23,25-dimethoxy-13,19,21,27-tetramethyl-11,28-dioxa-4-azatricyclo[22.3.1.0^4,9]octacos-18-ene-2,3,10,16-tetraone]",0.05,–,–,–,–,–,<0.5,–,–,–
"COc1ccc2c(c1)c(CC(=O)O)c(C)n2C(=O)c1ccc(Cl)cc1 [Indomethacin, reference compound]",–,–,–,11,63,96,–,26,31,–
